In test [1] the target is T1, Peptidyl-prolyl cis-trans isomerase NIMA-interacting 1 (Homo sapiens, UniProt Q13526). The test can be described thus: Inhibition of Gst-tagged human Pin1 assessed as inhibition constant measured after 14 hrs by FP binding assay.
Test [2] deals with T1, Peptidyl-prolyl cis-trans isomerase NIMA-interacting 1. In words: Inhibition of Gst-tagged human Pin1 assessed as inactivation constant measured after 14 hrs by FP binding assay.

Each structure is given as a SMILES string.

T1 sequence (Q13526 whole entry): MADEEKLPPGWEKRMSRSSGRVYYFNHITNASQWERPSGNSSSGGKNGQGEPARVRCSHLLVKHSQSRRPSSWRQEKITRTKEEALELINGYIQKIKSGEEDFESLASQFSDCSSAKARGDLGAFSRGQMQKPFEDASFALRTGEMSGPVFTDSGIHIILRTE

As for `CC(C)(C)CN(C(=O)CCl)C1CCS(=O)(=O)C1` (configuration not stated), the Ki in test [1] turned out to be 700 nM. For the same molecule, the Kinact in test [2] is 0.3 10^-1/min.

Values taken from ChEMBL document CHEMBL5325477, “Biological Function of Pin1 in Vivo and Its Inhibitors for Preclinical Study: Early Development, Current Strategies, and Future Directions” (J Med Chem, 2023).
